Tests used:
[1] = NMR comparison of CBD before and after encapsulation into nanoparticles (stability); assay type: physicochemical; conditions: encapsulated CBD (bottom spectrum) relative to non-encapsulated CBD sample (top spectrum), FIG. 3
Text: In some aspects, the cannabinoid in the dispersion can have a purity of at least 90%. In a further aspect, the purity of the cannabinoid in the dispersion ranges from 90-100%. In a still further aspect, the purity of the cannabinoid in the dispersion ranges from 92-97%. In general, the inventors have discovered that the encapsulation process described herein can be improved with the use of a pure cannabinoid starting material (e.g., from 92-97% pure). Similarly, the nanoparticle encapsulated cannabinoid products can advantageously maintain the purity of the cannabinoid over extended periods of time. In some aspects, the purity of the cannabinoid starting material can be maintained once encapsulated for a period of twelve months or longer, e.g., 18 months or longer, or even 24 months or longer. The stable shelf life of the cannabinoid nanoparticles is an advantage over many existing methods for delivering cannabinoid products. In some aspects, the stability of the cannabinoid can be measured using NMR, e.g., by comparing a pre-encapsulated cannabinoid to a cannabinoid extracted from a nanoparticle prepared by a disclosed method.

[2] = dystonia and parkinsonism due to antipsychotics; cited from earlier work

SMILES	stability of CBD after encapsulation into nanoparticles (NMR spectra) [1]	duration of benefits [2] [h]	time until benefits are seen [2] [h]
C=C(C)[C@@H]1CCC(C)=C[C@H]1c1c(O)cc(CCCCC)cc1O [CBD, cannabidiol]	remains intact		
CN1[C@@H]2CC[C@H]1C[C@@H](OC(c1ccccc1)c1ccccc1)C2 [Benztropine]		≤ 10	≤ 2
